pEC50: −log10 of the molar value. Where two headings read alike, the source gives them in different places.
System: HBV rcDNA in HepDE19 cells
Assay: HepDE19 assay with bDNA quantitation of HBV rcDNA
Type: cell-based, hepatitis B virus
Conditions: inhibition of rcDNA formation, bDNA quantitation, read-out: DE-19bDNA EC50
[1] = Hepatitis B virus, HepDE19, HepDE19 assay

Row | Structure (SMILES) | pEC50 (HepDE19 assay) | pEC50 [1]
1 | CN(C(=O)c1cc2sc(F)cc2[nH]1)C1CNCc2[nH]c(=O)c3cc(F)c(F)cc3c21 (single isomer, unassigned) [Compound 500, N-(8,9-difluoro-6-oxo-1,2,3,4,5,6-hexahydrobenzo[c][1,7]naphthyridin-1-yl)-2-fluoro-N-methyl-4H-thieno[3,2-b]pyrrole-5-carboxamide] | 7.52 | 
2 | CN(C(=O)c1cc2cc(F)ccc2[nH]1)[C@@H]1CCC(O)c2[nH]c(=O)c3cc(F)c(F)cc3c21 (single isomer, unassigned) [Compound 501] | 8.00 | 
3 | CN(C(=O)c1cc2cc(F)ccc2[nH]1)[C@@H]1CCC(O)c2[nH]c(=O)c3cc(F)c(F)cc3c21 (single isomer, unassigned) [Compound 502] | 7.52 | 
4 | CN(C(=O)c1cc2ccccc2[nH]1)[C@@H]1CCC(O)c2[nH]c(=O)c3cc(F)c(F)cc3c21 (single isomer, unassigned) [Compound 504] | 6.24 | 
5 | CN(C(=O)c1cc2ccccc2[nH]1)[C@@H]1CCC(O)c2[nH]c(=O)c3cc(F)c(F)cc3c21 (single isomer, unassigned) [Compound 505] | 7.30 | 
6 | CN(C(=O)c1cc2ccccn2c1)C1CNCc2[nH]c(=O)c3cc(F)c(F)cc3c21 (single isomer, unassigned) [Compound 506, N-(8,9-Difluoro-6-oxo-1,2,3,4,5,6-hexahydrobenzo[c][1,7]naphthyridin-1-yl)-N-methylindolizine-2-carboxamide] | 4.66 | 
7 | CN(C(=O)c1cc2ccccn2c1)C1CNCc2[nH]c(=O)c3cc(F)c(F)cc3c21 (single isomer, unassigned) [Compound 507, N-(8,9-Difluoro-6-oxo-1,2,3,4,5,6-hexahydrobenzo[c][1,7]naphthyridin-1-yl)-N-methylindolizine-2-carboxamide] | 7.22 | 
8 | CN(C(=O)c1cc2c(Cl)cccn2c1)C1CNCc2[nH]c(=O)c3cc(F)c(F)cc3c21 (single isomer, unassigned) [Compound 508, 8-Chloro-N-(8,9-Difluoro-6-oxo-1,2,3,4,5,6-hexahydrobenzo[c][1,7]naphthyridin-1-yl)-N-methylindolizine-2-carboxamide] | 4.94 | 
9 | CN(C(=O)c1cc2c(Cl)cccn2c1)C1CNCc2[nH]c(=O)c3cc(F)c(F)cc3c21 (single isomer, unassigned) [Compound 509, 8-Chloro-N-(8,9-Difluoro-6-oxo-1,2,3,4,5,6-hexahydrobenzo[c][1,7]naphthyridin-1-yl)-N-methylindolizine-2-carboxamide] | 8.00 | 
10 | CN(C(=O)C1Cc2c(F)cc(F)cc2N1)C1COCc2[nH]c(=O)c3cc(F)c(F)cc3c21 (stereo not drawn) [Compound 13, N-(8,9-Difluoro-6-oxo-1,4,5,6-tetrahydro-2H-pyrano[3,4-c]isoquinolin-1-yl)-4,6-difluoro-N-methylindoline-2-carboxamide] | 4.92 | 
11 | CN(C(=O)C1Cc2c(F)cc(F)cc2N1)C1COCc2[nH]c(=O)c3cc(F)c(F)cc3c21 (stereo not drawn) [Compound 14, N-(8,9-Difluoro-6-oxo-1,4,5,6-tetrahydro-2H-pyrano[3,4-c]isoquinolin-1-yl)-4,6-difluoro-N-methylindoline-2-carboxamide] | 7.40 | 
12 | CN(C(=O)C1Cc2c(F)cc(F)cc2N1)C1COCc2[nH]c(=O)c3cc(F)c(F)cc3c21 (stereo not drawn) [Compound 15, N-(8,9-Difluoro-6-oxo-1,4,5,6-tetrahydro-2H-pyrano[3,4-c]isoquinolin-1-yl)-4,6-difluoro-N-methylindoline-2-carboxamide] | 6.02 | 
13 | CN(C(=O)C1Cc2c(F)cc(F)cc2N1)C1COCc2[nH]c(=O)c3cc(F)c(F)cc3c21 (stereo not drawn) [Compound 16, N-(8,9-Difluoro-6-oxo-1,4,5,6-tetrahydro-2H-pyrano[3,4-c]isoquinolin-1-yl)-4,6-difluoro-N-methylindoline-2-carboxamide] | 7.70 | 
14 | CN(C(=O)c1cc2cc(F)c(F)cc2[nH]1)[C@H]1COCc2[nH]c(=O)c3cc(F)c(F)cc3c21 [Compound 41, N-(8,9-difluoro-6-oxo-1,4,5,6-tetrahydro-2H-pyrano[3,4-c]isoquinolin-1-yl)-5,6-difluoro-N-methyl-1H-indole-2-carboxamide] |  | 5.66
15 | CN(C(=O)c1cc2cc(F)c(F)cc2[nH]1)[C@@H]1COCc2[nH]c(=O)c3cc(F)c(F)cc3c21 [Compound 42, (S)-N-(8,9-difluoro-6-oxo-1,4,5,6-tetrahydro-2H-pyrano[3,4-c]isoquinolin-1-yl)-5,6-difluoro-N-methyl-1H-indole-2-carboxamide] |  | 8.30
16 | CN(C(=O)c1cn2cc(Cl)ccc2n1)[C@@H]1COCc2[nH]c(=O)c3cc(F)c(F)cc3c21 [Compound 51, (S)-6-Chloro-N-(8,9-difluoro-6-oxo-1,4,5,6-tetrahydro-2H-pyrano[3,4-c]isoquinolin-1-yl)-N-methylimidazo[1,2-a]pyridine-2-carboxamide] |  | 5.89
17 | CN(C(=O)c1cn2cc(Cl)ccc2n1)[C@@H]1COCc2[nH]c(=O)c3cc(F)ccc3c21 [Compound 52, (S)-6-Chloro-N-(8-fluoro-6-oxo-1,4,5,6-tetrahydro-2H-pyrano[3,4-c]isoquinolin-1-yl)-N-methylimidazo[1,2-a]pyridine-2-carboxamide] |  | 5.39
18 | CCN(C(=O)c1cn2cc(Cl)ccc2n1)[C@@H]1COCc2[nH]c(=O)c3cc(F)ccc3c21 [Compound 53, (S)-6-Chloro-N-ethyl-N-(8-fluoro-6-oxo-1,4,5,6-tetrahydro-2H-pyrano[3,4-c]isoquinolin-1-yl)imidazo[1,2-a]pyridine-2-carboxamide] |  | 5.60
19 | CN(C(=O)C1Nc2ccccc2C1(C)C)C1COCc2[nH]c(=O)c3cc(F)c(F)cc3c21 (stereo not drawn) [Compound 56, N-(8,9-Difluoro-6-oxo-1,4,5,6-tetrahydro-2H-pyrano[3,4-c]isoquinolin-1-yl)-N,3,3-trimethylindoline-2-carboxamide] |  | 4.74
20 | CN(C(=O)C1Nc2ccccc2C1(C)C)C1COCc2[nH]c(=O)c3cc(F)c(F)cc3c21 (stereo not drawn) [Compound 57, N-(8,9-Difluoro-6-oxo-1,4,5,6-tetrahydro-2H-pyrano[3,4-c]isoquinolin-1-yl)-N,3,3-trimethylindoline-2-carboxamide] | 4.64 | 
21 | CN(C(=O)C1Nc2ccccc2C1(C)C)C1COCc2[nH]c(=O)c3cc(F)c(F)cc3c21 (stereo not drawn) [Compound 59, N-(8,9-Difluoro-6-oxo-1,4,5,6-tetrahydro-2H-pyrano[3,4-c]isoquinolin-1-yl)-N,3,3-trimethylindoline-2-carboxamide] | 4.66 | 
22 | CN(C(=O)c1cc2ccccn2n1)[C@@H]1COCc2[nH]c(=O)c3cc(F)c(F)cc3c21 [Compound 64, (S)-N-(8,9-Difluoro-6-oxo-1,4,5,6-tetrahydro-2H-pyrano[3,4-c]isoquinolin-1-yl)-N-methylpyrazolo[1,5-a]pyridine-2-carboxamide] |  | 6.20
23 | CN(C(=O)c1cc2cccnn2c1)[C@@H]1COCc2[nH]c(=O)c3cc(F)c(F)cc3c21 [Compound 65, (S)-N-(8,9-Difluoro-6-oxo-1,4,5,6-tetrahydro-2H-pyrano[3,4-c]isoquinolin-1-yl)-N-methylpyrrolo[1,2-b]pyridazine-6-carboxamide] |  | 6.82
24 | CN(C(=O)c1ccc2cccnc2c1)[C@@H]1COCc2[nH]c(=O)c3cc(F)c(F)cc3c21 [Compound 66, (S)-N-(8,9-Difluoro-6-oxo-1,4,5,6-tetrahydro-2H-pyrano[3,4-c]isoquinolin-1-yl)-N-methylquinoline-7-carboxamide] |  | 5.64

— patent publication US20240228504A1, “SUBSTITUTED TRICYCLIC AMIDES, ANALOGUES THEREOF, AND METHODS USING SAME” (Arbutus Biopharma Corporation, priority 2020, published 2024)
